Tests used:
GES1 = assay: Cytotoxicity against androgen-negative human GES1 cells assessed as cell growth inhibition measured after 72 hrs by SRB assay; type: cell-based; details: GES1, 72 h
PC-3 = assay: Antiproliferative activity against androgen-negative human PC-3 cells assessed as cell growth inhibition measured after 72 hrs by SRB assay; type: functional, cell-based; details: PC-3, 72 h
LNCaP C4-2B = assay: Antiproliferative activity against androgen-sensitive positive human LNCaP C4-2B cells assessed as cell growth inhibition measured after 72 hrs by SRB assay; type: functional, cell-based
LNCaP = assay: Antiproliferative activity against androgen-positive human LNCaP cells assessed as cell growth inhibition measured after 72 hrs by SRB assay; type: functional, cell-based
MCF7 = assay: Antiproliferative activity against androgen-positive human MCF7 cells assessed as cell growth inhibition measured after 72 hrs by SRB assay; type: functional, cell-based; details: MCF7, 72 h
SGC-7901 = assay: Antiproliferative activity against androgen-positive human SGC-7901 cells assessed as cell growth inhibition measured after 72 hrs by SRB assay; type: functional, cell-based; details: SGC-7901, 72 h
[1] = Cytotoxicity against androgen-negative human WPMY-1 cells assessed as cell growth inhibition measured after 72 hrs by SRB assay; type: cell-based; details: WPMY-1, 72 h
[2] = target: T1, Androgen receptor (Homo sapiens) (UniProt P10275); assay: Binding affinity to androgen receptor LBD (unknown origin) at 10 uM incubated for 4 hrs under dark by fluorescence polarization based binding assay relative to R1881
T1 sequence (whole entry): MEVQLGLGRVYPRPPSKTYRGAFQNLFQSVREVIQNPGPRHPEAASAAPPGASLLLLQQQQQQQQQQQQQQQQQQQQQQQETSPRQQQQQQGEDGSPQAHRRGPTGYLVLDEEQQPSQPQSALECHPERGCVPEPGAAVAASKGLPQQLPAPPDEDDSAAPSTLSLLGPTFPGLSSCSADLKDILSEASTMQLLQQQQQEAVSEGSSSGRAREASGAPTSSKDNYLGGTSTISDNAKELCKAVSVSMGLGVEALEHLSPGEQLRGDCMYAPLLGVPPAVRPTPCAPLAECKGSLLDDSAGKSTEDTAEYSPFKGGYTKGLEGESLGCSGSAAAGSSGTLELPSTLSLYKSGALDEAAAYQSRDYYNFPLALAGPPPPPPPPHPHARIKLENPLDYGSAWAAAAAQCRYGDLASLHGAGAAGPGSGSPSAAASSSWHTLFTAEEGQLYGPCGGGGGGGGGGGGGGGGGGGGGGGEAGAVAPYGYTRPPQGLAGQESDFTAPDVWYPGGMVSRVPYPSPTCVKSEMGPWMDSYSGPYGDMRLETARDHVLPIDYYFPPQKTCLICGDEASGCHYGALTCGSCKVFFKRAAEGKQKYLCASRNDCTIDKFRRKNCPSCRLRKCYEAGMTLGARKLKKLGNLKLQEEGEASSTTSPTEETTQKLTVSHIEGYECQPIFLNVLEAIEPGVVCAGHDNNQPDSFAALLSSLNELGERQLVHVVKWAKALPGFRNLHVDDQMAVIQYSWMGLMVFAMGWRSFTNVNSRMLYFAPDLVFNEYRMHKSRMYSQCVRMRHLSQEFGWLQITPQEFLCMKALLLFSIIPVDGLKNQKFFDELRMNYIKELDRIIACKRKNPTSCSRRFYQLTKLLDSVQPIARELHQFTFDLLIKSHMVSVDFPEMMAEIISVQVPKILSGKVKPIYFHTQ

| IC50 (PC-3) [µM] | IC50 (LNCaP C4-2B) [µM] | IC50 (LNCaP) [µM] | IC50 (MCF7) [µM] | IC50 (SGC-7901) [µM] | Activity [2] [%] | Compound | IC50 (GES1) [µM] | IC50 [1] [µM] |
| --- | --- | --- | --- | --- | --- | --- | --- | --- |
| > 80 | 12.3 | 1.86 | 13.3 | 7.79 | 87.8 | CC1(C)C(=O)N(c2ccc(C#N)c(C(F)(F)F)c2)C(=S)N1CCCCn1cc(COCCOCCOC(=O)CC23CC4CC(CC(C4)C2)C3)nn1 | > 80 | > 80 |
| > 80 | 6.03 | 4.06 | 9.12 | 4.11 | 74.6 | CC1(C)C(=O)N(c2ccc(C#N)c(C(F)(F)F)c2)C(=S)N1CCCn1cc(COCCOCCOC(=O)CC23CC4CC(CC(C4)C2)C3)nn1 | > 80 | > 80 |
| > 80 | 5.8 | 3.97 | 7.73 | 4.98 | 79.5 | CC1(C)C(=O)N(c2ccc(C#N)c(C(F)(F)F)c2)C(=S)N1CCCn1cc(COCCOCCOCCOC(=O)CC23CC4CC(CC(C4)C2)C3)nn1 | > 80 | > 80 |

Source: ChEMBL document CHEMBL4706528, “The design, synthesis and anti-tumor mechanism study of new androgen receptor degrader” (Eur J Med Chem, 2020)
